Test results published in a melting point compilation (Tetko et al.; mined from patent text by program, amines drawn as free bases though some values may be those of a salt).

Compared with `CC(C)C(=O)c1ccc(-c2ccc3c(c2)CC[C@H]2N(C)C(=O)CC[C@]32C)cc1`, `CC1(c2ccc(-c3ccc(F)cc3)cc2)CC(=O)NN1` (configuration not stated) is higher in melting point: 101 to 103 °C for the first, 194 to 196 °C for the second.

Compared with `COC(=O)C=C(C)c1ccc(CCNCC(O)c2ccccc2)cc1` (configuration not stated), `CC(C)c1ccc2c(CCCCNS(=O)(=O)c3ccccc3)cc(C(=O)O)c-2cc1` is higher in melting point: 120 to 125 °C for the first, 167 to 168 °C for the second.

First: O=C(O)c1cn(-c2nccs2)c2c(F)c(F)c(F)cc2c1=O
Second: CCNC1C(C)CN(c2c(F)cc3c(=O)c(C(=O)O)cn(C4CC4)c3c2OC)CC1C (configuration not stated)
The melting point of the first is lower: 198 to 200 °C for the first, 250 to 252 °C for the second.

Compared with `CNC(=O)CC1CN=C(c2cc3cc(Oc4ccc(COC)nc4)cc(OC)c3[nH]2)S1` (configuration not stated), `CCC(C)Nc1nc(Cc2cc(OC)c(OC)c(OC)c2)nc2sc(C#N)c(C)c12` (configuration not stated) is higher in melting point: 102 to 104 °C for the first, 134 to 137 °C for the second.

Compared with `COc1ccc(-c2ccc(-n3nnnc3C(F)(F)F)cc2)cc1C=O`, `COc1cc(C#N)ccc1C=O` is lower in melting point: 186 to 187 °C for the first, 112 to 114 °C for the second.

First: O=C1Cc2ccccc2Sc2cc(F)c(F)cc21
Second: Fc1ccccc1-c1nc2ncncc2[nH]1
The melting point of the first is lower: 110 to 112 °C for the first, 267 to 271 °C for the second.

Compared with `CCn1ncc2c3noc(-c4ccc(C)cc4)c3cnc21`, `Cc1ccc(-n2nc3c(cc2=O)CCCc2sc(CO)cc2-3)cc1` is lower in melting point: 221 to 222 °C for the first, 158 to 159 °C for the second.

Compared with `O=C1CCCC12CCn1c(cc3ccccc31)C2` (configuration not stated), `O=C(c1cnc2ccccc2c1)C1CCN(C(=O)c2ccccc2)CC1` is higher in melting point: 128 to 130 °C for the first, 170 °C for the second.

First: CC(C)(C)c1cc(CCc2ccccc2NC(=O)NC(C)(C)c2ccc(Cl)c(Cl)c2)cc(C(C)(C)C)c1O
Second: O=C(Nc1ccc([N+](=O)[O-])cc1O)Nc1cc(Cl)ccc1O
The melting point of the first is higher: 203 to 205 °C for the first, 193 to 194 °C for the second.

First: Nc1cc(Oc2ccc(Oc3cc(N)cc(C(F)(F)F)c3)c(C(F)(F)F)c2)cc(C(F)(F)F)c1
Second: Cc1c(C#N)c(SC(F)(F)F)cn1-c1c(Cl)cc(C(F)(F)F)cc1Cl
The melting point of the first is lower: 82 to 84 °C for the first, 98.5 °C for the second.

First: CS(=O)(=O)NC(=O)Nc1ccc(Cl)cc1
Second: COc1cc(C)nc(NC(=O)NS(=O)(=O)c2ccc(N=[N+]=[N-])cc2)n1
The melting point of the first is higher: 225 to 235 °C for the first, 192 °C for the second.

Compared with `COc1cc(Br)cc(/C=C/C(=O)/C=C/c2cc(Br)cc(OC)c2)c1`, `COC(=O)c1cc(=O)c2c(C)cc(C)cc2[nH]1` is higher in melting point: 181 to 183 °C for the first, 227 to 229 °C for the second.

First: CC(C)(C)OC(=O)N[C@H]1CC[C@H](CN2CCN(c3cccc4c3CCC4)CC2)CC1
Second: CCCCCCNc1ccc(OC2CCN(C(=O)OC(C)(C)C)CC2)cc1
The melting point of the first is higher: 131 to 134 °C for the first, 46 to 47 °C for the second.

First: COC(=O)Nc1ccc(C(=O)N(C)C)c(S(N)(=O)=O)c1
Second: CCC(C(=O)Nc1c(C)cccc1C)N(C)C (configuration not stated)
The melting point of the first is lower: 75 to 77 °C for the first, 155 to 157 °C for the second.

First: CCc1cc2c(OC)ccc(C)c2nc1Cl
Second: Cc1cc(S(=O)(=O)O)ccc1OCc1ccccc1C(=O)O
The melting point of the first is lower: 101 to 102 °C for the first, 242 to 244 °C for the second.

First: FC1=CC(c2cccnc2)=CC2CCC(=S)NC12 (configuration not stated)
Second: Cn1ncnc1COc1nn2c(-c3ccccc3F)nncc2c1-c1cccnc1
The melting point of the first is higher: 235 °C for the first, 181 to 183 °C for the second.

`O=C(O)C1=C(C(=O)O)Oc2ccccc2O1` and `CCOC(=O)C1=C(NC(C)=O)Oc2cc(O)ccc2C1c1cccnc1` (configuration not stated) cannot be ordered by melting point: 215 to 218 °C for the first, 216 to 218 °C for the second.

First: CCOC(=O)C1=C(N)C(OCC)=NS1=O (configuration not stated)
Second: CCOC(=O)c1cnncc1NC(=O)Cc1c(F)cc(F)cc1F
The melting point of the first is higher: 154 to 155 °C for the first, 143 to 144 °C for the second.

First: Cc1cc(-c2cccc([N+](=O)[O-])c2)nnc1N(C)N
Second: O=C(Nc1ccc([N+](=O)[O-])cc1)c1ccc(F)cc1
The melting point of the first is higher: 173 to 174 °C for the first, 117 to 118 °C for the second.

First: CC(C)(C=O)S(=O)(=O)c1ccccc1
Second: CC(C)(C)NS(=O)(=O)c1ccccc1C=C1CCOC1=O
The melting point of the first is lower: 103 to 104 °C for the first, 173 to 176 °C for the second.

`O=c1ccsc2c1[nH]c1ccc(Br)cc12` and `CN(C)c1ccc2nc(-c3c[nH]c4ccccc34)[nH]c(=O)c2c1` cannot be ordered by melting point: 334 to 337 °C for the first, greater than 300 °C for the second.

First: O=[N+]([O-])c1ccc(OCC(COc2ccc([N+](=O)[O-])cc2)(COc2ccc([N+](=O)[O-])cc2)COc2ccc([N+](=O)[O-])cc2)cc1
Second: CCOc1ccc(OCCCN2CCC(C(O)(c3ccc(F)cc3)c3ccc(F)cc3)CC2)cc1
The melting point of the first is higher: 274 to 282 °C for the first, 89 to 91 °C for the second.

First: Cc1c(NC(=O)CC(C)(C)C)cc2c(c1C)OC(C)(C)C2O (configuration not stated)
Second: CC(C)(C)OC(=O)N1CCc2c(oc3cc(S(=O)(=O)c4cccc(F)c4)ccc23)C1(C)C
The melting point of the first is higher: 184 to 185 °C for the first, 58 to 60 °C for the second.

First: Cc1[nH]cnc1/C=C1\CCc2c(c3ccc(F)cc3n2C)C1=O
Second: O=C1Nc2cc(F)ccc2C1CCCCN1CCN(c2ccccn2)CC1 (configuration not stated)
The melting point of the first is higher: 290 to 295 °C for the first, 136 to 137 °C for the second.

First: CCSc1cnc(Oc2ccc(Cl)c(Cl)c2)cc1C#N
Second: CCCCc1nnc(SCc2ccc(Cl)cc2)n1Cc1ccc(OC(C(=O)O)c2ccccc2Cl)cc1 (configuration not stated)
The melting point of the first is lower: 68 to 69 °C for the first, 100 to 102 °C for the second.

First: CCCCCCCCCCCCCCc1ccc(OCC(CO)OC)cc1 (configuration not stated)
Second: CSC1CC(=O)N1CC(=O)CCCCCCCc1ccccc1 (configuration not stated)
The melting point of the first is lower: 43 to 45 °C for the first, 48 to 51 °C for the second.

Compared with `CC(C)c1[nH]c(C(=O)Nc2ccc(C(=O)O)cc2)c(C(C)C)c1C(C)C`, `COc1ccc(C(=O)Nc2ccc(C(=O)c3ccccc3)cc2)cc1` is lower in melting point: greater than 300 °C for the first, 171 to 174 °C for the second.

First: COc1ccc2c(c1)c1c(n2Cc2ccc(Cl)cc2)CCCC1C(=O)O (configuration not stated)
Second: COc1cccc(-c2[nH]cc(C3=C[C@@H]4C[C@@H](c5ccccc5)CN4CC3)c2-c2ccncc2)c1
The melting point of the first is higher: 218 to 220 °C for the first, 141 to 144 °C for the second.

First: C=CCc1ccccc1OC(CC)C(=O)OC1CC(O)C=C2C=CC(C)C(CCC3CC(O)CC(=O)O3)C21 (mixture of isomers)
Second: C=CCn1cc(C2CCN(CCOc3ccccc3C(=O)O)CC2)c2ccccc21
The melting point of the first is higher: 143 to 145 °C for the first, 123 to 125 °C for the second.

Compared with `CCNC(=O)Nc1ccc(-c2sc3c(c2CN(C)CCOC)c(=O)n(-c2ccc(OCCOC)c(OCCOC)c2)c(=O)n3Cc2c(F)cccc2F)cc1`, `COc1ccc(N(C(=O)CNC(=O)Nc2cccc(C)c2)c2ccccc2)cc1` is lower in melting point: 206 to 208 °C for the first, 182 °C for the second.

First: CC(C)(C)c1nc(O)cc(OC(F)F)n1
Second: CC(C)(C)c1c(O)[nH]c(=O)[nH]c1=O
The melting point of the first is lower: 156 °C for the first, 247 to 248 °C for the second.

Compared with `COc1ccccc1N1CCN(CCCNc2ccc(F)cc2)CC1`, `NCC(O)COc1cccc2ccccc12` (configuration not stated) is higher in melting point: 79 to 80 °C for the first, 106 °C for the second.

First: COCCc1nc2c(N)nc3ccc(CCC(=O)N4CCOCC4)cc3c2n1CCCN1CCCC1=O
Second: COC(=O)CCCc1nc2c([nH]1)c(=O)n(C)c(=O)n2C
The melting point of the first is lower: 168 to 170 °C for the first, 200 to 204 °C for the second.

First: C#CC12CC3CC(C1)CC(C14CC5CC(CC(C#C)(C5)C1)C4)(C3)C2
Second: COc1ccc(-c2ccc3cc(C4SC(=O)NC4=O)ccc3c2)cc1C12CC3CC(CC(C3)C1)C2 (configuration not stated)
The melting point of the first is higher: 208 to 210 °C for the first, 205 to 207 °C for the second.

Compared with `CCN(c1nc(C)cc(C)n1)c1ccc(N(C)C(C)=O)cc1SC`, `CCCc1cc(=O)oc2cc(O)ccc12` is lower in melting point: 158 to 160 °C for the first, 135 to 137 °C for the second.

First: NCCOCC(P(=O)(O)O)P(=O)(O)O
Second: CCC(C)OC(=O)CCC(S)(C#N)C1=NCCc2cc(OC)c(OC)cc21 (configuration not stated)
The melting point of the first is higher: greater than 300 °C for the first, 120 °C for the second.
